# Data published in ChEMBL document CHEMBL1128559, “Inhibition of the oncogene product p185erbB-2 in vitro and in vivo by geldanamycin and dihydrogeldanamycin derivatives” (J Med Chem, 1995).
# Legend:
# Mus musculus [1] = assay: In vivo inhibition of phospho-p185erbB-2 expression in FRE/erbB-2 tumors in nu/nu mice at 200 mg/kg dose.
# SK-BR-3 = assay: Inhibition of oncogene product p185 erbB-2 from human breast cancer cells(SK-BR-3 cells).
# Mus musculus [2] = assay: In vivo inhibition of phospho-p185erbB-2 expression in FRE/erbB-2 tumors in nu/nu mice at 100 mg/kg dose.
SMILES,IC50 (SK-BR-3),inhibition in vivo at 200 mg/kg (Mus musculus [1]),inhibition in vivo at 100 mg/kg (Mus musculus [2])
CO[C@H]1/C=C\C=C(/C)C(=O)NC2=CC(=O)C(N)=C(C[C@@H](C)C[C@H](OC)[C@H](O)[C@@H](C)/C=C(\C)[C@@H]1OC(N)=O)C2=O,0.037 µM,47%,–
CO[C@H]1C[C@H](C)CC2=C(NCCF)C(=O)C=C(NC(=O)/C(C)=C/CC[C@H](OC)[C@@H](OC(N)=O)/C(C)=C/[C@H](C)[C@H]1O)C2=O,0.027 µM,53%,–
CO[C@H]1C[C@H](C)CC2=C(NC3CC3)C(=O)C=C(NC(=O)/C(C)=C/CC[C@H](OC)[C@@H](OC(N)=O)/C(C)=C/[C@H](C)[C@H]1O)C2=O,0.046 µM,–,31%
COCCNC1=C2C[C@@H](C)C[C@H](OC)[C@H](O)[C@@H](C)/C=C(\C)[C@H](OC(N)=O)[C@@H](OC)CC/C=C(\C)C(=O)NC(=CC1=O)C2=O,0.033 µM,69%,42%
CO[C@H]1/C=C\C=C(/C)C(=O)NC2=CC(=O)C(N3CCC3)=C(C[C@@H](C)C[C@H](OC)[C@H](O)[C@@H](C)/C=C(\C)[C@@H]1OC(N)=O)C2=O,0.023 µM,68%,61%
CNC1=C2C[C@@H](C)C[C@H](OC)[C@H](O)[C@@H](C)/C=C(\C)[C@H](OC(N)=O)[C@@H](OC)CC/C=C(\C)C(=O)NC(=CC1=O)C2=O,0.012 µM,37%,–
CO[C@H]1/C=C\C=C(/C)C(=O)NC2=CC(=O)C(NCCS(=O)(=O)O)=C(C[C@@H](C)C[C@H](OC)[C@H](O)[C@@H](C)/C=C(\C)[C@@H]1OC(N)=O)C2=O,> 2.7 µM,–,–
CO[C@H]1/C=C\C=C(/C)C(=O)NC2=CC3=NC(/N=C(\N)N4CCC(C)CC4)=NC3=C(C[C@@H](C)C[C@H](OC)[C@H](O)[C@@H](C)/C=C(\C)[C@@H]1OC(N)=O)C2=O,0.15 µM,–,–
COC1=C2C[C@@H](C)C[C@H](OC)[C@H](O)[C@@H](C)/C=C(\C)[C@H](OC(N)=O)[C@@H](OC)/C=C\C=C(/C)C3=NC(=C(C1=O)C(NC(C)(C)C)O3)C2=O (stereo partly specified),> 3.1 µM,–,–
C=CCNC1=C2C[C@@H](C)C[C@H](OC)[C@H](O)[C@@H](C)/C=C(\C)[C@H](OC(N)=O)[C@@H](OC)CC/C=C(\C)C(=O)NC(=CC1=O)C2=O,0.051 µM,–,–
CO[C@H]1/C=C\C=C(/C)C(=O)NC2=CC3=NC(/N=C(\N)N4CCOCC4)=NC3=C(C[C@@H](C)C[C@H](OC)[C@H](O)[C@@H](C)/C=C(\C)[C@@H]1OC(N)=O)C2=O,2.03 µM,–,–
COC1=C2C[C@@H](C)C[C@H](OC)[C@H](O)[C@@H](C)/C=C(\C)[C@H](OC(N)=O)[C@@H](OC)/C=C\C=C(/C)C(=O)N3CN(C(C)(C)C)CC(=C3C2=O)C1=O,> 3.04 µM,–,–
CO[C@H]1/C=C\C=C(/C)C(=O)NC2=CC(=O)C(N3CCCC3C(=O)O)=C(C[C@@H](C)C[C@H](OC)[C@H](O)[C@@H](C)/C=C(\C)[C@@H]1OC(N)=O)C2=O (stereo partly specified),0.79 µM,–,–
COC1=C2C[C@@H](C)C[C@H](OC)[C@H](O)[C@@H](C)/C=C(\C)[C@H](OC(N)=O)[C@@H](OC)/C=C\C=C(/C)C(=O)NC(=C(/C=N/N3CCN(C)CC3)C1=O)C2=O,> 2.9 µM,–,–
CO[C@H]1/C=C\C=C(/C)C(=O)NC2=CC(=O)C(NCC3CCNCC3)=C(C[C@@H](C)C[C@H](OC)[C@H](O)[C@@H](C)/C=C(\C)[C@@H]1OC(N)=O)C2=O,> 3.1 µM,–,–
COC1=C2C[C@@H](C)C[C@H](OC)[C@H](O)[C@@H](C)/C=C(\C)[C@H](OC(N)=O)[C@@H](OC)CC/C=C(\C)C(=O)NC(=CC1=O)C2=O,0.23 µM,–,–
CO[C@H]1C[C@H](C)CC2=C3N=C(/N=C(\N)N4CCC4)N=C3C=C(NC(=O)/C(C)=C/CC[C@H](OC)[C@@H](OC(N)=O)/C(C)=C/[C@H](C)[C@H]1O)C2=O,0.98 µM,–,–
CO[C@H]1C[C@H](C)CC2=C(NCCO)C(=O)C=C(NC(=O)/C(C)=C/CC[C@H](OC)[C@@H](OC(N)=O)/C(C)=C/[C@H](C)[C@H]1O)C2=O,0.034 µM,55%,–
CO[C@H]1/C=C\C=C(/C)C(=O)NC2=CC(=O)C(NC3CCCC3)=C(C[C@@H](C)C[C@H](OC)[C@H](O)[C@@H](C)/C=C(\C)[C@@H]1OC(N)=O)C2=O,> 3.26 µM,–,–
CO[C@H]1/C=C\C=C(/C)C(=O)NC2=CC(=O)C(NCCC(=O)O)=C(C[C@@H](C)C[C@H](OC)[C@H](O)[C@@H](C)/C=C(\C)[C@@H]1OC(N)=O)C2=O,0.19 µM,–,–
CO[C@H]1C[C@H](C)CC2=C(NC(C)C)C(=O)C=C(NC(=O)/C(C)=C/CC[C@H](OC)[C@@H](OC(N)=O)/C(C)=C/[C@H](C)[C@H]1O)C2=O,0.47 µM,–,–
CO[C@H]1C[C@H](C)CC2=C(NCC(C)O)C(=O)C=C(NC(=O)/C(C)=C/CC[C@H](OC)[C@@H](OC(N)=O)/C(C)=C/[C@H](C)[C@H]1O)C2=O (stereo partly specified),0.083 µM,32%,–

# Second part, led by results:
IC50 (SK-BR-3),SMILES,inhibition in vivo at 200 mg/kg (Mus musculus [1]),inhibition in vivo at 100 mg/kg (Mus musculus [2])
0.06 µM,CO[C@H]1/C=C\C=C(/C)C(=O)NC2=CC(=O)C(NC(C)C)=C(C[C@@H](C)C[C@H](OC)[C@H](O)[C@@H](C)/C=C(\C)[C@@H]1OC(N)=O)C2=O,87%,–
0.42 µM,CO[C@H]1/C=C\C=C(/C)C(=O)Nc2cc3nc4ccccc4oc-3c(c2=O)C[C@@H](C)C[C@H](OC)[C@H](O)[C@@H](C)/C=C(\C)[C@@H]1OC(N)=O,–,–
0.71 µM,COC(CNC1=C2C[C@@H](C)C[C@H](OC)[C@H](O)[C@@H](C)/C=C(\C)[C@H](OC(N)=O)[C@@H](OC)/C=C\C=C(/C)C(=O)NC(=CC1=O)C2=O)OC,–,–
0.52 µM,COC1c2cc(O)cc(c2O)NC(=O)/C(C)=C/C=C\[C@H](OC)[C@@H](OC(N)=O)/C(C)=C/[C@H](C)[C@@H](OC)[C@@H](OC)C[C@@H]1C (stereo partly specified),–,–
1.3 µM,CO[C@H]1/C=C\C=C(/C)C(=O)NC2=CC(=O)C(N3CC(CO)C3)=C(C[C@@H](C)C[C@H](OC)[C@H](O)[C@@H](C)/C=C(\C)[C@@H]1OC(N)=O)C2=O,–,–
0.11 µM,CO[C@H]1/C=C\C=C(/C)C(=O)NC2=CC(=O)C(NCCCI)=C(C[C@@H](C)C[C@H](OC)[C@H](O)[C@@H](C)/C=C(\C)[C@@H]1OC(N)=O)C2=O,–,–
1.99 µM,CO[C@H]1/C=C\C=C(/C)C(=O)NC2=CC(=O)C(NCC(N)=O)=C(C[C@@H](C)C[C@H](OC)[C@H](O)[C@@H](C)/C=C(\C)[C@@H]1OC(N)=O)C2=O,–,–
0.33 µM,CO[C@H]1/C=C\C=C(/C)C(=O)NC2=CC(=O)C(N[C@H](C)CO)=C(C[C@@H](C)C[C@H](OC)[C@H](O)[C@@H](C)/C=C(\C)[C@@H]1OC(N)=O)C2=O,–,–
0.26 µM,CO[C@H]1/C=C\C=C(/C)C(=O)NC2=CC(=O)C(NC[C@@H](C)O)=C(C[C@@H](C)C[C@H](OC)[C@H](O)[C@@H](C)/C=C(\C)[C@@H]1OC(N)=O)C2=O,–,–
0.18 µM,CO[C@H]1/C=C\C=C(/C)C(=O)NC2=CC(=O)C(N[C@@H](C)CO)=C(C[C@@H](C)C[C@H](OC)[C@H](O)[C@@H](C)/C=C(\C)[C@@H]1OC(N)=O)C2=O,–,–
> 3.13 µM,COC1=C2C[C@@H](C)C[C@H](OC)[C@H](O)[C@@H](C)/C=C(\C)[C@H](OC(N)=O)[C@@H](OC)/C=C\C=C(/C)C(=O)NC(=C(Br)C1=O)C2=O,–,–
0.043 µM,CO[C@H]1/C=C\C=C(/C)C(=O)NC2=CC(=O)C(NC3CC3)=C(C[C@@H](C)C[C@H](OC)[C@H](O)[C@@H](C)/C=C(\C)[C@@H]1OC(N)=O)C2=O,–,–
0.098 µM,CO[C@H]1/C=C\C=C(/C)C(=O)NC2=CC(=O)C(NCCSC)=C(C[C@@H](C)C[C@H](OC)[C@H](O)[C@@H](C)/C=C(\C)[C@@H]1OC(N)=O)C2=O,–,–
0.13 µM,CO[C@H]1/C=C\C=C(/C)C(=O)NC2=CC(=O)C(NCCCO)=C(C[C@@H](C)C[C@H](OC)[C@H](O)[C@@H](C)/C=C(\C)[C@@H]1OC(N)=O)C2=O,–,–
0.1 µM,CO[C@H]1/C=C\C=C(/C)C(=O)NC2=CC(=O)C(NCCO)=C(C[C@@H](C)C[C@H](OC)[C@H](O)[C@@H](C)/C=C(\C)[C@@H]1OC(N)=O)C2=O,–,–
> 3.2 µM,CO[C@H]1/C=C\C=C(/C)C(=O)Nc2cc3nc4ccccc4nc3c(c2O)C[C@@H](C)C[C@H](OC)[C@H](O)[C@@H](C)/C=C(\C)[C@@H]1OC(N)=O,–,–
0.22 µM,CO[C@H]1/C=C\C=C(/C)C(=O)NC2=CC(=O)C(Nc3nccs3)=C(C[C@@H](C)C[C@H](OC)[C@H](O)[C@@H](C)/C=C(\C)[C@@H]1OC(N)=O)C2=O,–,–
0.026 µM,C#CCNC1=C2C[C@@H](C)C[C@H](OC)[C@H](O)[C@@H](C)/C=C(\C)[C@H](OC(N)=O)[C@@H](OC)/C=C\C=C(/C)C(=O)NC(=CC1=O)C2=O,–,–
> 3.25 µM,COC1=C2C[C@@H](C)C[C@H](OC)[C@H](O)[C@@H](C)/C=C(\C)[C@H](OC(N)=O)[C@@H](OC)/C=C\C=C(/C)C(=O)NC(=C(NC3CC3)C1=O)C2=O,–,–
0.08 µM,CO[C@H]1/C=C\C=C(/C)C(=O)NC2=CC(=O)C(NCCCN)=C(C[C@@H](C)C[C@H](OC)[C@H](O)[C@@H](C)/C=C(\C)[C@@H]1OC(N)=O)C2=O,–,–
0.17 µM,CO[C@H]1/C=C\C=C(/C)C(=O)NC2=CC(=O)C(N=C(N(C)C)N(C)C)=C(C[C@@H](C)C[C@H](OC)[C@H](O)[C@@H](C)/C=C(\C)[C@@H]1OC(N)=O)C2=O,–,–
0.2 µM,CO[C@H]1/C=C\C=C(/C)C(=O)NC2=CC(=O)C(NC(C)(C)C)=C(C[C@@H](C)C[C@H](OC)[C@H](O)[C@@H](C)/C=C(\C)[C@@H]1OC(N)=O)C2=O,–,–
0.05 µM,CO[C@H]1/C=C\C=C(/C)C(=O)NC2=CC(=O)C(N3CC(O)C3)=C(C[C@@H](C)C[C@H](OC)[C@H](O)[C@@H](C)/C=C(\C)[C@@H]1OC(N)=O)C2=O,–,–
